Test results as given in patent US20060058314A1, “Oxazolidinone derivatives and their use as antibacterial agents” (AstraZeneca AB, priority 2002, published 2006).

How the values were obtained:
Format in all cases: cell-based
Haemophilus influenzae = test: MIC, fastidious Gram negative organisms in Mueller-Hinton broth; conditions: Mueller-Hinton broth + hemin and NAD, 24 hours, 37° C., 5×10^4 CFU/well
Protocol: (§1) The following results were obtained on a standard in-vitro test system. The activity is described in terms of the minimum inhibitory concentration (MIC) determined by the agar-dilution technique with an inoculum size of 10^4 CFU/spot. Typically, compounds are active in the range 0.01 to 256 μg/ml.
(§2) Streptococci and enterococci were tested on agar supplemented with 5% defibrinated horse blood, an inoculum of 10^4 CFU/spot and an incubation temperature of 37° C. in an atmosphere of 5% carbon dioxide for 48 hours—blood is required for the growth of some of the test organisms. Fastidious Gram negative organisms were tested in Mueller-Hinton broth, supplemented with hemin and NAD, grown aerobically for 24 hours at 37° C., and with an innoculum of 5×10^4 CFU/well.

Moraxella catarrhalis = test: as above; conditions: Mueller-Hinton broth + hemin and NAD, 24 hours, 37° C., 5×10^4 CFU/well
Protocol: as §1, §2

[1] = test system: Staphylococcus aureus MSQS (methicillin sensitive and quinolone sensitive); test: MIC, agar dilution, staphylococci; conditions: 10^4 CFU/spot, 37° C., 24 hours
Protocol: as §1
(§3) Staphylococci were tested on agar, using an inoculum of 10^4 CFU/spot and an incubation temperature of 37° C. for 24 hours—standard test conditions for the expression of methicillin resistance.

[2] = test system: Staphylococcus aureus MRQR (methicillin resistant and quinolone resistant); test: MIC, agar dilution, staphylococci; conditions: 10^4 CFU/spot, 37° C., 24 hours
Protocol: as §1, §3

Enterococcus faecium = test: MIC, agar with 5% defibrinated horse blood, enterococci; conditions: agar + 5% horse blood, 10^4 CFU/spot, 37° C., 5% CO2, 48 hours
Protocol: as §1, §2

[3] = test system: Linezolid Resistant Streptococcus pneumoniae; test: MIC, agar with 5% defibrinated horse blood, streptococci; conditions: agar + 5% horse blood, 10^4 CFU/spot, 37° C., 5% CO2, 48 hours
Protocol: as §1, §2

Streptococcus pneumoniae = test: as above; conditions: agar + 5% horse blood, 10^4 CFU/spot, 37° C., 5% CO2, 48 hours
Protocol: as §1, §2

`O=C1O[C@@H](Cn2ccnn2)CN1c1ccc(-c2cnc(C3=NOC(CO)C3)nc2)c(F)c1` (mixture of isomers) [Example 1, 3-(3-Fluoro-4-{2-(5RS)-[5-(hydroxymethyl)-4,5-dihydroisoxazol-3-yl]pyrimidin-5-yl}phenyl)-5-(5R)-(1H-1,2,3-triazol-1-ylmethyl)-1,3-oxazolidin-2-one] was tested, and the MIC (Haemophilus influenzae) was 8 µg/mL, the MIC (Moraxella catarrhalis) was 2 µg/mL and the MIC [1] was 2 µg/mL. The MIC [2] was 2 µg/mL, the MIC (Enterococcus faecium) was 2 µg/mL and the MIC [3] was 4 µg/mL. For the same compound, the MIC (Streptococcus pneumoniae) was 0.25 µg/mL.
